In patent US9604974B2, “Compounds as modulator of JAK-STAT pathway, methods and applications thereof” (UNIVERSITY OF MYSORE, priority 2015, dated 2017):

How the values were obtained:
STAT3 = experiment: Immunocytochemistry of STAT3 nuclear translocation; type: cell-based, human; conditions: HepG2, 10 μMol/L, about 6 hours
Protocol: HepG2 cells are plated in chamber slides in DMEM containing 10% FBS and allowed to adhere for about 24 hours. Following treatment with CIMO for about 6 hours, the cells are fixed with cold acetone for about 10 minutes, washed with PBS and blocked with 5% normal goat serum for about 1 hour. The cells are then incubated with rabbit polyclonal anti-human STAT3 Antibody (dilution, 1/100). After overnight incubation, the cells are washed and then incubated with goat anti-rabbit IgG-Alexa 594 ( 1/100) for about 1 hour and counterstained for nuclei with Hoechst (50 ng/ml) for about 5 minutes. Stained cells are mounted with mounting medium (Sigma-Aldrich) and analyzed under a fluorescence microscope (DP 70, Olympus, Tokyo, Japan).

HepG2 cells [1] = experiment: MTT anti-proliferative assay, HepG2; type: cell-based; conditions: Homo sapiens
Protocol: (§1) The anti-proliferative activity of Formula I compounds are studied on HepG2 cells using MTT assay. Briefly, the cells (2.5×10^4/ml) are incubated in triplicate in a 96-well plate in the presence or absence of different concentrations of compounds in a final volume of 0.2 ml up to 72 hours at 37° C. Thereafter, 20 μl MTT solution (5 mg/ml in PBS) is added to each well. After 2 hours of incubation at 37° C., 0.1 ml lysis buffer (20% SDS, 50% dimethyl-formamide) is added; incubation is continued overnight at 37° C.; and the optical density (OD) at 570 nm is measured by Tecan plate reader.

HepG2 cells [2] = experiment: Matrigel invasion assay; type: cell-based, human; conditions: 5 μMol/L CIMO, presence and absence of CXCL12
Protocol: FIG. 5 depicts inhibition of cell migration by Compound 1 (CIMO) [A]. 70 μl HepG2 cells (5×10^5/mL) are seeded into each compartments of culture insert and insert is removed after about 12 hours. Width of the wound is measured initially and incubation is carried out with and without CIMO (5 μM, for about 8 hours) and CXCL12 (100 ng/mL, for about 24 hours). [B] Inhibition of cell invasion by Compound 1 (CIMO). HepG2 (2×10^5) cells are seeded in the top chamber of BD BioCoat™ Matrigel™. After pre-incubation with or without 5 μMol/L CIMO for about 8 hours, transwell chambers are placed into the wells of a 24-well plate which contains either only basal medium or basal medium with CXCL12 (100 ng/mL) for about 24 hours. After incubation, the chambers are assessed for cell invasion by staining with crystal violet.
In case of the invasion assay, the said assay is performed wherein BD (Biocoat™ Matrigel™) Invasion chamber with 8 μm pores in the light-tight polyethylene terephthalate membrane is taken and is coated with a reconstituted basement membrane gel (BD Biosciences). 2×10^5 cells are suspended in serum-free DMEM and seeded into the Matrigel Transwell chambers. The cells are incubated with CIMO for about 8 hours. […] The invading cells are then counted in five randomly selected areas under microscopic observation.

[3] = system: MDA MB231 (breast cancer cell line); experiment: MTT anti-proliferative assay, MDA MB231; type: cell-based; conditions: Homo sapiens, MDA-MB-231
Protocol: as §1
Additionally, Compound 1 is tested on a panel of six cell lines including Hep3B, PLC/PRF5, AGS (gastric cancer cell line), DU145 (prostrate cancer cell line), MDA MB231 (breast cancer cell line) and CAL27 (head and neck cancer cell line) cells.

JAK2 = experiment: IL-6 induced JAK2 phosphorylation in Hep3B; type: cell-based; conditions: 10 μMol/L CIMO, IL-6 10 ng/mL
Protocol: FIG. 3 depicts comparative study of cell viability between STAT3-siRNA transfected and Compound 1 (CIMO) treated HepG2 cells [A]. Correspondingly, Western Blot analysis is used to assess the levels of phospho-STAT3 and STAT3 in HepG2 cells with siRNA-mediated depletion STAT3 expression and on exposure to 4 μM CIMO. Whole cell extract is prepared and resolved on SDS-PAGE gel, electrotransferred onto nitrocellulose membrane, and probed for phospho-STAT3 and the same blot is stripped and reprobed with STAT3 antibody and Beta actin to verify equal protein loading. [B] showcases the modulation of STAT3 mediated transcription, α2-M promoter activity by Compound 1 (CIMO) in HepG2 cells. [C] depicts the inhibition of IL-6-induced phosphorylation of STAT3, JAK1 and JAK2 by Compound 1 (CIMO). Hep3B cells (5×10^5/mL) are treated with 10 μMol/L CIMO for the indicated times and then stimulated with IL-6 (10 ng/mL) for about 15 minutes. Whole-cell extracts are then prepared, resolved on SDS-PAGE gel, electrotransferred onto nitrocellulose membrane and probed with phospho-STAT3, phospho-JAK1 and phospho-JAK2 antibodies. The same blot is stripped and reprobed with STAT3, JAK1 and JAK2 antibody to verify equal protein loading. [D] and [E], showcases the suppression of STAT3 regulated gene products involved in cell proliferation and survival by Compound 1 (CIMO). […]

IC50 (HepG2 cells [1]; HepG2, Table 2): 7.3 µM | IC50 (HepG2 cells [1]; HepG2 cells after 72 hours, MTT): 7.3 µM | IC50 [3]: 24.3 µM
SMILES: COc1ccc(C2CNC(c3cn(Cc4ccc(-c5ccccc5C#N)cc4)c4ccccc34)OC23CCCCC3)cc1 (stereo not drawn) [Compound 1]
STAT3 in the nucleus (STAT3): significant decrease | inhibition of HepG2 cells motility (invasion) (HepG2 cells [2]): more than 50% | IL-6 induced phosphorylation of JAK2 (JAK2): substantially down-regulates
